Substitutions are numbered along the chain they refer to.
What was measured:
TRPV3-I505A = target: T1, TRPV3-I505A (Homo sapiens, UniProt Q8NET8, I505A); test: Whole-cell and single-channel recordings of the TRPV3-I505A mutant; type: cell-based
T1 sequence (Q8NET8 1-790 I505A): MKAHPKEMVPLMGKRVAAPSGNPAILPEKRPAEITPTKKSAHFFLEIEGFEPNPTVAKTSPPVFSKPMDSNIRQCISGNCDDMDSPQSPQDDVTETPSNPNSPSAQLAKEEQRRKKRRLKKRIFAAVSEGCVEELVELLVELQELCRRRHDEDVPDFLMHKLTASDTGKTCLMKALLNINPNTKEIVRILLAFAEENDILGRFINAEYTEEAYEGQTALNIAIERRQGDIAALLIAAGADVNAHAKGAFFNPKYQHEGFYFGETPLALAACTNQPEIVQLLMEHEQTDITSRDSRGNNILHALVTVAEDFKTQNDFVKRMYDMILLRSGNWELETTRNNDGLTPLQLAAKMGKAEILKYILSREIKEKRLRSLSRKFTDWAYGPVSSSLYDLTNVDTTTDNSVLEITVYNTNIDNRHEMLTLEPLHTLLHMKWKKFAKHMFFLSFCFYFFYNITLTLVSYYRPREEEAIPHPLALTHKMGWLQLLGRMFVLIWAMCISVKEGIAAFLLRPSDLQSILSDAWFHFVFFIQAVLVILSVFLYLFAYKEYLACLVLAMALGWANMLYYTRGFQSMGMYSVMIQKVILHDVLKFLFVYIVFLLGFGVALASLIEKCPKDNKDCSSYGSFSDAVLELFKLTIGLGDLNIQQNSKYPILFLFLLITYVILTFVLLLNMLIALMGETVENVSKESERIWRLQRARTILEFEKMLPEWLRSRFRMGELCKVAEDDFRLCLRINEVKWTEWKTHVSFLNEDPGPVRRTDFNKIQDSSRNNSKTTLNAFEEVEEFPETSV

TRPV3-L508V = target: T2, TRPV3-L508V (Homo sapiens, UniProt Q8NET8, L508V); test: Whole-cell and single-channel recordings of the TRPV3-L508V mutant; type: cell-based; conditions: carvacrol 0.3-3 mM
T2 sequence (Q8NET8 1-790 L508V): T1 sequence (Q8NET8 1-790 I505A) with A505I, L508V

human TRPV3 = target: T3, human TRPV3 (Homo sapiens, UniProt Q8NET8); test: Inside-out single channel recordings of TRPV3; type: biochemical
T3 sequence (Q8NET8 1-790): T1 sequence (Q8NET8 1-790 I505A) with A505I

[1] = +80 mV, carvacrol 300 μM or 2-APB 50 μM alone

In the case of `Cc1ccc(C(C)C)cc1O` [carvacrol, 5-Isopropyl-2-methylphenol], the EC50 (TRPV3-I505A) is reported as 3.51 ± 0.44 mM, the “right shift of channel activation versus WT TRPV3” value (TRPV3-I505A; I505A versus WT) is reported as “over 10 fold” and the “activation of TRPV3 I505A mutant channel” value (TRPV3-I505A; carvacrol 0.3-3.0 mM or 50 μM 2-APB) is reported as “weak activation of TRPV3 I505A at high concentration of 3 mM”. For the same compound, the “activation of TRPV3 L508V mutant channel” value (TRPV3-L508V) was “retain the channel activation”, the “single-channel open frequency (Freq)” value (human TRPV3; [1]) was 59.21 ± 11.32 Hz and the “single-channel open probability (Po)” value (human TRPV3; [1]) was 0.72 ± 0.05. For the same compound, the “unitary conductance of TRPV3 single channels” value (human TRPV3; inside-out patches, -80 mV to +80 mV, carvacrol 300 μM, 2-APB 50 μM, n = 4) was 182.0 ± 6.4 pS.

Reference: PMC8920929 (The Journal of Biological Chemistry, 2022)
